Experimental data from US4613608A (priority 1982, dated 1986).
≈ marks a conversion by molar mass, not a printed value.

Experiments:
large coronary artery = assay: tissue or blood; format: cell-based, dogs; conditions: for EC50: Canis lupus familiaris, read-out: ED50 Large (L); for S/L: dog, coronary artery strips
small coronary artery = assay: tissue or blood; format: cell-based, dogs; conditions: Canis lupus familiaris, read-out: ED50 Small (S)

## O=[N+]([O-])OCc1cccnc1 [Compound A, 3-Nitroxymethylpyridine, reference compound]
Large coronary artery
  EC50: 0.08 µg/mL (≈ 0.519 µM)
  S/L: 23.8
Small coronary artery
  EC50: 1.9 µg/mL (≈ 12.3 µM)

## O=[N+]([O-])OCc1cccc(Cl)n1 [Compound D, 2-Nitroxymethyl-6-chloropyridine]
Large coronary artery
  EC50: 0.0067 µg/mL (≈ 0.0355 µM)
  S/L: 925
Small coronary artery
  EC50: 6.2 µg/mL (≈ 32.9 µM)

## O=[N+]([O-])OCCCc1ccncc1 [Compound C, 4-(3-Nitroxypropyl)pyridine]
Large coronary artery
  EC50: 0.0125 µg/mL (≈ 0.0686 µM)
  S/L: > 800
Small coronary artery
  EC50: > 10 µg/mL
